The values that follow come from patent US10851098B2, “Azole amides and amines as alpha v integrin inhibitors” (BRISTOL-MYERS SQUIBB COMPANY, priority 2016, dated 2020).

pIC50: −log10 of the molar value.

The assay deals with T1, human αVβ6 (Homo sapiens, UniProt P06756+P18564).
T1 construct: purchased R & D systems 3817-AV
The assay can be described thus: human αVβ6 HTRF binding assay. As for the experimental part: All binding assays used the HTRF (homogeneous time resolved fluorescence) technology from Cisbio International, therefore all assays are described as HTRF binding assays. The assay results for the Examples are listed above together with the characterization data. The HTRF binding assays are established for the following integrins: human αVβ6, human αVβ1, human αVβ3, human αVβ5, and human αVβ8. All assays used the following assay buffer: 20 mM Tris, pH 7.4, 1 mM MgCl2, 1 mM MnCl2, 0.01% Tween 20, and 0.01% BSA. Alternatively, a SPA-based assay was used for evaluation of receptor binding.
[…]

T1 sequence (P06756 31-992 limits assumed): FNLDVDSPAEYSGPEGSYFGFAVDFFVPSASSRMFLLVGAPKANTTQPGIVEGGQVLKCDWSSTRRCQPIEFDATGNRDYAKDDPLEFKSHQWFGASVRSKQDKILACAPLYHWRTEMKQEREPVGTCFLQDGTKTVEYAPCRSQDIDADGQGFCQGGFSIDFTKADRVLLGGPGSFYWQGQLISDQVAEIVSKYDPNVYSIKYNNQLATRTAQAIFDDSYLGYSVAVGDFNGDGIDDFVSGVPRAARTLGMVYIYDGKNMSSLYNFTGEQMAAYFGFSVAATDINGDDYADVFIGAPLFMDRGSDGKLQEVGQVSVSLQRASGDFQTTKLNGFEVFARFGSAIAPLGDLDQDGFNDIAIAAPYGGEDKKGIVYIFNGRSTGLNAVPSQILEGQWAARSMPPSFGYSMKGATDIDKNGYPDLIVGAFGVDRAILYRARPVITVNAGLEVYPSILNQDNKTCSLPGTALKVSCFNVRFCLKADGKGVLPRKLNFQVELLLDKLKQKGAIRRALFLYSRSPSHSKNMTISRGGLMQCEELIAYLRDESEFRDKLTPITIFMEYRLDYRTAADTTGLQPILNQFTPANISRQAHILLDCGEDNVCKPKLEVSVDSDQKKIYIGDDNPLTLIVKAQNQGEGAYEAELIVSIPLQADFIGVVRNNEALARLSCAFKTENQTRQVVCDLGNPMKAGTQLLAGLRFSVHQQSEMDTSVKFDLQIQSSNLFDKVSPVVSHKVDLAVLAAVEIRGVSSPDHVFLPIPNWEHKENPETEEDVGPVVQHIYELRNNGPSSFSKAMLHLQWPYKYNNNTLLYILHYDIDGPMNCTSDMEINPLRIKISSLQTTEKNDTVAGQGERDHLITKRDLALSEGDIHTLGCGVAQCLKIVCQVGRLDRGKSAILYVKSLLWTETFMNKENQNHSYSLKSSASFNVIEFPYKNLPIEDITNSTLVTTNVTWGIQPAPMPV
T1 sequence (P18564 22-707 limits assumed): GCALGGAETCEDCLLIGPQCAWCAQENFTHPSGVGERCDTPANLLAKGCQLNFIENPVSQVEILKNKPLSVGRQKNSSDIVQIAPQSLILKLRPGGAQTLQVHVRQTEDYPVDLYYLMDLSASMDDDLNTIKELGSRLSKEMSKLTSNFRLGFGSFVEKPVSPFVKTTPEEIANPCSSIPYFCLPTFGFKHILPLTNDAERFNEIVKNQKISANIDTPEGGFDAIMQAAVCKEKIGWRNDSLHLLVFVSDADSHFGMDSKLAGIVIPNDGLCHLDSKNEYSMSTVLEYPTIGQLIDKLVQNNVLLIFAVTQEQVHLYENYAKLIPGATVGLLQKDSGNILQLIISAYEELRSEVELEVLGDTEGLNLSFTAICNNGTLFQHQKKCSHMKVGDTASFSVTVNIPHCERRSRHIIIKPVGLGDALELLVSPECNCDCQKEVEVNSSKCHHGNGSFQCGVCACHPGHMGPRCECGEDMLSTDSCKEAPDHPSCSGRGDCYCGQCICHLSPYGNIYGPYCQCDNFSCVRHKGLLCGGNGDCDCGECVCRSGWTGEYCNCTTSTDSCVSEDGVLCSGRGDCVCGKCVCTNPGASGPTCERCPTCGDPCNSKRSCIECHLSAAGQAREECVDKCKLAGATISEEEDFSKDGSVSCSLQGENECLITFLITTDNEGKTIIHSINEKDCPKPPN

A word on the pIC50: it is the negative decadic logarithm of the IC50, by convention in mol/L. The molecule `COc1ccc([C@H](CC(=O)O)NC(=O)c2cn(CCc3ccc4c(n3)NCCC4)nc2COC(C)(C)C)cc1F` [Example 1, (S)-3-(3-(tert-Butoxymethyl)-1-(2-(5,6,7,8-tetrahydro-1,8-naphthyridin-2-yl)ethyl)-1H-pyrazole-4-carboxamido)-3-(3-fluoro-4-methoxyphenyl)propanoic acid] gave a pIC50 of 6.11.

With `COc1ccc([C@H](CC(=O)O)NC(=O)c2cn(CCc3ccc4c(n3)NCCC4)nc2CO)cc1F` [Example 2, (S)-3-(3-Fluoro-4-methoxyphenyl)-3-(3-(hydroxymethyl)-1-(2-(5,6,7,8-tetrahydro-1,8-naphthyridin-2-yl)ethyl)-1H-pyrazole-4-carboxamido)propanoic acid], the pIC50 is 6.46.

For `CC(C)(C)OCc1nn(CCc2ccc3c(n2)NCCC3)cc1C(=O)NC(CC(=O)O)c1cc(Cl)cc(Cl)c1` (stereo not shown) [Example 3], the negative logarithm of the IC50 (pIC50) was 6.51.

`O=C(O)CC(NC(=O)c1cn(CCc2ccc3c(n2)NCCC3)nc1CO)c1cc(Cl)cc(Cl)c1` (stereo not shown) [Example 4, 3-(3,5-Dichlorophenyl)-3-(3-(hydroxymethyl)-1-(2-(5,6,7,8-tetrahydro-1,8-naphthyridin-2-yl)ethyl)-1H-pyrazole-4-carboxamido)propanoic acid] gave a pIC50 of 6.85. This pIC50 lies 0.34 log units higher than the previous one.

The molecule `CC(C)(C)OCc1nn(CCCc2ccc3c(n2)NCCC3)cc1C(=O)NC(CC(=O)O)c1cc(Cl)cc(Cl)c1` (stereo not shown) [Example 5, 3-(3-(tert-Butoxymethyl)-1-(3-(5,6,7,8-tetrahydro-1,8-naphthyridin-2-yl)propyl)-1H-pyrazole-4-carboxamido)-3-(3,5-dichlorophenyl)propanoic acid] gave a negative logarithm of the IC50 (pIC50) of 6.80. This pIC50 and that of the molecule before are within 0.2 log units of each other.

For `O=C(O)CC(NC(=O)c1cn(CCCc2ccc3c(n2)NCCC3)nc1CO)c1cc(Cl)cc(Cl)c1` (stereo not shown) [Example 6, 3-(3,5-Dichlorophenyl)-3-(3-(hydroxymethyl)-1-(3-(5,6,7,8-tetrahydro-1,8-naphthyridin-2-yl)propyl)-1H-pyrazole-4-carboxamido)propanoic acid], the pIC50 is 6.75.

Molecule `O=C(O)C[C@H](NC(=O)c1cnn(CCCNc2ccccn2)c1)c1cc(Cl)cc(Cl)c1` [Example 7, (S)-3-(3,5-Dichlorophenyl)-3-(1-(3-(pyridin-2-ylamino)propyl)-1H-pyrazole-4-carboxamido)propanoic acid] showed a negative-log IC50 (pIC50) of 7.20.

Molecule `O=C(O)C[C@H](NC(=O)c1cnn(CCCNC2=NCCN2)c1)c1cc(Cl)cc(Cl)c1` [Example 8, (S)-3-(3,5-Dichlorophenyl)-3-(1-(3-((4,5-dihydro-1H-imidazol-2-yl)amino)propyl)-1H-pyrazole-4-carboxamido)propanoic acid] gave a pIC50 of 7.39.

Regarding `O=C(O)CC(NC(=O)c1cnn(CCc2ccc3c(n2)NCCC3)c1CO)c1cccc(Cl)c1` (stereo not shown) [Example 9, 3-(3-Chlorophenyl)-3-(5-(hydroxymethyl)-1-(2-(5,6,7,8-tetrahydro-1,8-naphthyridin-2-yl)ethyl)-1H-pyrazole-4-carboxamido)propanoic acid], the pIC50 is 7.66.

`N[C@@H](CNC(=O)c1cnn(CCc2ccc3c(n2)NCCC3)c1)C(=O)O` [Example 11, (S)-2-Amino-3-(1-(2-(5,6,7,8-tetrahydro-1,8-naphthyridin-2-yl)ethyl)-1H-pyrazole-4-carboxamido)propanoic acid] had a pIC50 of 6.92.

`O=C(O)C[C@H](NC(=O)c1cnn(CCc2ccc3c(n2)NCCC3)n1)c1cc(Cl)cc(Cl)c1` [Example 13, (S)-3-(3,5-Dichlorophenyl)-3-(2-(2-(5,6,7,8-tetrahydro-1,8-naphthyridin-2-yl)ethyl)-2H-1,2,3-triazole-4-carboxamido)propanoic acid] had a pIC50 of 8.15. This pIC50 is 1.23 log units higher than that of the molecule before.

`Cc1nc2c(cc1Cn1ncc(C(=O)N[C@@H](CC(=O)O)c3cc(Cl)cc(Cl)c3)n1)CCCN2` [Example 14, (S)-3-(3,5-Dichlorophenyl)-3-(2-((2-methyl-5,6,7,8-tetrahydro-1,8-naphthyridin-3-yl)methyl)-2H-1,2,3-triazole-4-carboxamido)propanoic acid]: the pIC50 was 5.66.

For the molecule `Cc1cc(C)c(C(=O)N[C@@H](CNC(=O)c2cnn(CCc3ccc4c(n3)NCCC4)c2)C(=O)O)c(C)c1` [Example 15, (S)-3-(1-(2-(5,6,7,8-Tetrahydro-1,8-naphthyridin-2-yl)ethyl)-1H-pyrazole-4-carboxamido)-2-(2,4,6-trimethylbenzamido)propanoic acid], the pIC50 was 9.05.

In turn, `O=C(O)C[C@H](NC(=O)c1cnn(CCc2ccc3c(n2)NCCC3)c1)c1cc(Cl)cc(Cl)c1` [Example 16, (S)-3-(3,5-Dichlorophenyl)-3-(1-(2-(5,6,7,8-tetrahydro-1,8-naphthyridin-2-yl)ethyl)-1H-pyrazole-4-carboxamido)propanoic acid] had a negative-log IC50 (pIC50) of 8.38. Compared with the last molecule, the pIC50 is 0.67 log units lower.

For `CCN(C(=O)c1cnn(CCc2ccc3c(n2)NCCC3)c1)C(CC(=O)O)c1ccc(OC)nc1` (stereo not shown) [Example 17, 3-(N-Ethyl-1-(2-(5,6,7,8-tetrahydro-1,8-naphthyridin-2-yl)ethyl)-1H-pyrazole-4-carboxamido)-3-(6-methoxypyridin-3-yl)propanoic acid], the pIC50 was 6.44.

Consider `COc1ccc([C@H](CC(=O)O)N(C)C(=O)c2cnn(CCc3ccc4c(n3)NCCC4)c2)cc1F` [Example 18], for which the pIC50 was 7.89.

For `COc1ccc(S(=O)(=O)N[C@@H](CNC(=O)c2cnn(CCc3ccc4c(n3)NCCC4)c2)C(=O)O)cc1` [Example 19, (S)-2-((4-Methoxyphenyl)sulfonamido)-3-(1-(2-(5,6,7,8-tetrahydro-1,8-naphthyridin-2-yl)ethyl)-1H-pyrazole-4-carboxamido)propanoic acid], the pIC50 is 8.89.

As for `O=C(NC[C@@H](NC(=O)[C@@H]1CCCN1S(=O)(=O)c1ccccc1)C(=O)O)c1cnn(CCc2ccc3c(n2)NCCC3)c1` [Example 21], the pIC50 is 8.85.

Regarding `CC(C)(C)c1cc(Br)cc([C@H](CC(=O)O)NC(=O)c2cnn(CCc3ccc4c(n3)NCCC4)c2)c1` [Example 22], the pIC50 was 8.72.

Turning to `Cc1ccc(Oc2cccc(C(CC(=O)O)NC(=O)c3cnn(CCc4ccc5c(n4)NCCC5)c3COC(C)(C)C)c2)cc1` (stereo not shown) [Example 23], the pIC50 was 8.64.

In turn, `O=C(O)CC(NC(=O)c1cnn(CCc2ccc3c(n2)NCCC3)c1)c1ccc(Cl)c(C(F)(F)F)c1` (stereo not shown) [Example 24] had a pIC50 of 8.51.

On to `CN(C(=O)c1cnn(CCc2ccc3c(n2)NCCC3)c1)[C@@H](CC(=O)O)c1cc(Cl)cc(Cl)c1` [Example 25], for which the pIC50 is 8.51.

For `CC(C)(C)c1cc(Br)cc([C@H](CC(=O)O)NC(=O)c2cnn(CCc3ccc4c(n3)NCCC4)c2CO)c1` [Example 26], the pIC50 is 8.30. This pIC50 is 0.21 log units lower than that of the molecule before.

For `Cc1ccc(Oc2cccc(C(CC(=O)O)NC(=O)c3cnn(CCc4ccc5c(n4)NCCC5)c3CO)c2)cc1` (stereo not shown) [Example 27], the pIC50 is 8.29.

`Cc1cc(C)c(S(=O)(=O)N[C@H](CNC(=O)c2cnn(CCCc3ccc4c(n3)NCCC4)c2)C(=O)O)c(C)c1` [Example 28] had a pIC50 of 8.21.

Molecule `O=C(O)C[C@H](NC(=O)c1cnn(CCc2ccc3c(n2)NCCC3)c1CO)c1cc(Cl)cc(Cl)c1` [Example 29] had a pIC50 of 8.19. The pIC50 values of the last two molecules are within 0.2 log units of each other.

The molecule `O=C(O)CC(NC(=O)c1cnn(CCc2ccc3c(n2)NCCC3)c1)c1cc(Cl)cc(Cl)c1` (stereo not shown) [Example 30] had a pIC50 of 8.14. The pIC50 values of the last two molecules are within 0.2 log units of each other.

In the case of `CN(C(=O)c1cnn(CCc2ccc3c(n2)NCCC3)c1)C(CC(=O)O)c1cc(Cl)cc(Cl)c1` (stereo not shown) [Example 32], the pIC50 is 8.12.

For the molecule `COc1ccc([C@H](CC(=O)O)NC(=O)c2cnn(CCc3ccc4c(n3)NCCC4)c2CO)cc1F` [Example 33], the pIC50 is 8.03.

As for `CC(C)(C)OCc1c(C(=O)NC(CC(=O)O)c2cccc(-n3cccc3)c2)cnn1CCc1ccc2c(n1)NCCC2` (stereo not shown) [Example 34], the pIC50 is 8.00.

`O=C(O)CC(NC(=O)c1cnn(CCc2ccc3c(n2)NCCC3)c1CO)c1ccc(Cl)c(C(F)(F)F)c1` (stereo not shown) [Example 35] showed a pIC50 of 8.00.

Consider `O=C(O)CC(NC(=O)c1cnn(CCc2ccc3c(n2)NCCC3)c1CO)c1cccc(OC(F)(F)F)c1` (stereo not shown) [Example 36], for which the pIC50 is 7.96.

In turn, `Cc1cc(C)n(-c2cccc(C(CC(=O)O)NC(=O)c3cnn(CCc4ccc5c(n4)NCCC5)c3COC(C)(C)C)c2)n1` (stereo not shown) [Example 37] showed a pIC50 of 7.92.

`O=C(O)CC(NC(=O)c1cnn(CCc2ccc3c(n2)NCCC3)c1CO)c1cccc(Oc2cc(Cl)cc(Cl)c2)c1` (stereo not shown) [Example 38] gave a pIC50 of 7.89.

Molecule `COc1ccc([C@H](CC(=O)O)NC(=O)c2cnn(CCc3ccc4c(n3)NCCC4)c2)cc1F` [Example 39] had a pIC50 of 7.82.

Regarding `CN(C(=O)c1cnn(CCc2ccc3c(n2)NCCC3)c1CO)C(CC(=O)O)c1cc(Cl)cc(Cl)c1` (stereo not shown) [Example 40], the pIC50 is 7.85.

For the molecule `CC(C)(C)OCc1c(C(=O)NC(CC(=O)O)c2cc(Cl)cc(Cl)c2)cnn1CCc1ccc2c(n1)NCCC2` (stereo not shown) [Example 41], the pIC50 is 7.85.

For `Cc1cc(C)n(-c2cccc(C(CC(=O)O)NC(=O)c3cnn(CCc4ccc5c(n4)NCCC5)c3CO)c2)n1` (stereo not shown) [Example 42], the pIC50 is 7.80.

Molecule `COc1ccc([C@H](CC(=O)O)NC(=O)c2cnn(CCc3ccc4c(n3)NCCC4)c2CO)cn1` [Example 43] showed a pIC50 of 7.80.

`O=C(O)CC(NC(=O)c1cnn(CCc2ccc3c(n2)NCCC3)c1CO)c1cccc(C(F)(F)F)c1` (stereo not shown) [Example 44] gave a pIC50 of 7.80.
